# Source: US8618289B2 (Ambit Biosciences Corporation, priority 2008, dated 2013)
# Read-outs that look alike come from different tables or passages of the source.
# Tests used:
# RAF kinases [1] = molecular target: RAF kinases (Homo sapiens, UniProt P04049); conditions: read-out: RAF1 Kd; RAF1
# RAF kinases [2] = molecular target: RAF kinases (Homo sapiens, UniProt P15056); conditions: read-out: BRAF WT Kd; BRAF WT
# [3] = test system: MEK1 phosphorylation in the A375 human melanoma cell line; test: cells; conditions: A-375, read-out: pMEK IC50
# RAF kinases [4] = molecular target: T1, RAF kinases (Homo sapiens, UniProt P15056, V600E); test: biochemical
# T1 sequence (P15056 whole entry V600E): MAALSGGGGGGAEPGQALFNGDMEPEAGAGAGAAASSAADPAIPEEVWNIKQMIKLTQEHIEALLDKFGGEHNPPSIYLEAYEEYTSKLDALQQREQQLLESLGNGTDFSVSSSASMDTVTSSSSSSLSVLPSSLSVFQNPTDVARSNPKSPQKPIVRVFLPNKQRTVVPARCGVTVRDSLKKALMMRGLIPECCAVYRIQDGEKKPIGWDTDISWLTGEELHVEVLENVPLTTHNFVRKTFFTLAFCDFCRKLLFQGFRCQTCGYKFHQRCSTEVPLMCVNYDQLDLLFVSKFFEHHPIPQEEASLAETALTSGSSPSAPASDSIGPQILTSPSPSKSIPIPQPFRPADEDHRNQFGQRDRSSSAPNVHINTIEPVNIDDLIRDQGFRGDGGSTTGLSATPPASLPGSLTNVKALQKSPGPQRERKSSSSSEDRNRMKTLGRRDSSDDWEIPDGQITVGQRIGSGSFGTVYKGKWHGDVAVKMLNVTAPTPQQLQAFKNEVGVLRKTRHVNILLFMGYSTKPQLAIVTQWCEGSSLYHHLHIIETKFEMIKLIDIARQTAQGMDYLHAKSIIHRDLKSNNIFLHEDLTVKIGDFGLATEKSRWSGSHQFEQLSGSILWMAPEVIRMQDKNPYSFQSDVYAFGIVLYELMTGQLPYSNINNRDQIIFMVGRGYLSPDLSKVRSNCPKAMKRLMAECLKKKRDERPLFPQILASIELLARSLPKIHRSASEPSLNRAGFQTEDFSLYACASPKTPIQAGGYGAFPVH
# A375 cells = test: cells; conditions: Homo sapiens, A-375, read-out: A375 Viability EC50
# RAF kinases [5] = molecular target: T1, RAF kinases; conditions: read-out: BRAF V600E Kd; BRAF V600E
# RAF kinases (Homo sapiens, UniProt P04049), sequence (P04049 whole entry): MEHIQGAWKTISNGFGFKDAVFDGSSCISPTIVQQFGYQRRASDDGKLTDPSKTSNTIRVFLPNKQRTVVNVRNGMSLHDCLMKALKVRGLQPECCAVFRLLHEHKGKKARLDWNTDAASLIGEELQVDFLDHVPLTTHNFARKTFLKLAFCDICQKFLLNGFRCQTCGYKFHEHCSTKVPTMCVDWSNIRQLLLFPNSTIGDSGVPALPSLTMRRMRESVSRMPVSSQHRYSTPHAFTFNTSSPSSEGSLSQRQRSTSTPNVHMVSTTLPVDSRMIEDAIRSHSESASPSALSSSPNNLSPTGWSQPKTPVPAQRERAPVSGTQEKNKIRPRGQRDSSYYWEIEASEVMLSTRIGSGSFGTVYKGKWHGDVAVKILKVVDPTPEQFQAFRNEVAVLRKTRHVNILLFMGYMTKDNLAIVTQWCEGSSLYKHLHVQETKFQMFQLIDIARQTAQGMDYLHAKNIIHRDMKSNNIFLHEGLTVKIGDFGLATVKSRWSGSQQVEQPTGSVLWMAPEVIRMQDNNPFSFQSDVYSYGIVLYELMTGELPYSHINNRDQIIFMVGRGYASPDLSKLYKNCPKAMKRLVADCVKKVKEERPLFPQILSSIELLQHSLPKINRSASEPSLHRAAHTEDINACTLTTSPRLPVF
# RAF kinases (Homo sapiens, UniProt P15056), sequence (P15056 whole entry): as the sequence (P15056 whole entry V600E) above, with E600V counted along it
Kd (RAF kinases [1]),Kd (RAF kinases [2]),IC50 [3],Kd (RAF kinases [4]),EC50 (A375 cells),Kd (RAF kinases [5]),Structure (SMILES)
> 1000 nM,> 1000 nM,< 250 nM,500 to 1000 nM,,,"COCCOc1cc2ncnc(Sc3cccc(NC(=O)Nc4cc(C(C)(C)C)nn4-c4cccc(C)c4)c3)c2cc1OC [Ex 287, 1-(3-tert-butyl-1-m-tolyl-1H-pyrazol-5-yl)-3-(3-(6-methoxy-7-(2-methoxyethoxy)quinazolin-4-ylthio)phenyl)urea]"
> 1000 nM,> 1000 nM,< 250 nM,250 to 500 nM,,,"COc1cc2ncnc(Oc3cccc(NC(=O)Nc4cc(C(C)(C)C)nn4-c4ccc(C)cc4)c3)c2cc1OC [Ex 274, 1-(3-tert-butyl-1-p-tolyl-1H-pyrazol-5-yl)-3-(3-(6,7-dimethoxyquinazolin-4-yloxy)phenyl)urea]"
> 1000 nM,> 1000 nM,< 250 nM,500 to 1000 nM,,,"COc1cc2ncnc(Oc3cc(NC(=O)Nc4cc(C(C)(C)C)nn4-c4ccccc4)c(F)cc3F)c2cc1OC [Ex 273, 1-(3-tert-butyl-1-phenyl-1H-pyrazol-5-yl)-3-(5-(6,7-dimethoxyquinazolin-4-yloxy)-2,4-difluorophenyl)urea]"
> 1000 nM,> 1000 nM,< 250 nM,250 to 500 nM,,,"COc1cc2ncnc(Oc3cccc(NC(=O)Nc4cc(C(C)(C)C)nn4-c4cccc(C)c4)c3)c2cc1OC [Ex 285, 1-(3-tert-butyl-1-m-tolyl-1H-pyrazol-5-yl)-3-(3-(6,7-dimethoxyquinazolin-4-yloxy)phenyl)urea]"
< 250 nM,< 250 nM,< 250 nM,,< 250 nM,< 250 nM,"COc1cc2ncnc(Oc3cccc(NC(=O)Nc4cc(C5(C(F)(F)F)CC5)on4)c3)c2cc1OC [Ex 377, 1-(3-(6,7-dimethoxyquinazolin-4-yloxy)phenyl)-3-(5-(1-(trifluoromethyl)cyclopropyl)isoxazol-3-yl)urea]"
< 250 nM,< 250 nM,250 to 500 nM,,250 to 500 nM,< 250 nM,"CCc1cc(NC(=O)Nc2cccc(Sc3ncnc4cc(OC)c(OC)cc34)c2)n(-c2ccccc2)n1 [Ex 399, 1-(3-(6,7-dimethoxyquinazolin-4-ylthio)phenyl)-3-(3-ethyl-1-phenyl-1H-pyrazol-5-yl)urea]"
> 1000 nM,> 1000 nM,> 1000 nM,,> 1000 nM,> 1000 nM,"COCCOc1cc2ncnc(Sc3cccc(NC(=O)Nc4cc(C(F)(F)F)n(-c5ccccc5)n4)c3)c2cc1OC [Ex 244, 1-{3-[6-methoxy-7-(2-methoxyethoxy)quinazolin-4-ylthio]phenyl}-3-[1-phenyl-5-(trifluoromethyl)-1H-pyrazol-3-yl]urea]"
< 250 nM,< 250 nM,250 to 500 nM,,500 to 1000 nM,< 250 nM,"COc1cc2ncnc(Oc3cccc(NC(=O)Nc4cccc(C(C)(C)C#N)c4)c3)c2cc1OC [Ex 278, 1-(3-(2-cyanopropan-2-yl)phenyl)-3-(3-(6,7-dimethoxyquinazolin-4-yloxy)phenyl)urea]"
< 250 nM,< 250 nM,< 250 nM,,250 to 500 nM,< 250 nM,"COc1cc2ncnc(Oc3ccc(F)c(NC(=O)Nc4cc(C(C)(C)C)on4)c3)c2cc1OC [Ex 367, 1-(5-tert-butylisoxazol-3-yl)-3-(5-(6,7-dimethoxyquinazolin-4-yloxy)-2-fluorophenyl)urea]"
< 250 nM,< 250 nM,< 250 nM,,< 250 nM,< 250 nM,"CCOc1cc2c(Sc3cccc(NC(=O)Nc4cc(C(C)(CF)CF)on4)c3)ncnc2cc1OC [Ex 395, 1-(5-(1,3-difluoro-2-methylpropan-2-yl)isoxazol-3-yl)-3-(3-(6-ethoxy-7-methoxyquinazolin-4-ylthio)phenyl)urea]"
< 250 nM,< 250 nM,250 to 500 nM,,> 1000 nM,< 250 nM,"COCCOc1cc2ncnc(Sc3cccc(NC(=O)Nc4cc(C(C)C)on4)c3)c2cc1OC [Ex 232, 1-(5-isopropylisoxazol-3-yl)-3-(3-(6-methoxy-7-(2-methoxyethoxy)quinazolin-4-ylthio)phenyl)urea]"
< 250 nM,< 250 nM,250 to 500 nM,,500 to 1000 nM,< 250 nM,"COc1cc2c(Oc3cccc(NC(=O)Nc4cc(C(C)(C)F)no4)c3)ncnc2cc1O [Ex 257, 1-(3-(2-fluoropropan-2-yl)isoxazol-5-yl)-3-(3-(7-hydroxy-6-methoxyquinazolin-4-yloxy)phenyl)urea]"
< 250 nM,< 250 nM,< 250 nM,,< 250 nM,< 250 nM,"CCOc1cc2ncnc(Oc3cccc(NC(=O)Nc4cc(C(C)(CF)CF)on4)c3)c2cc1OC [Ex 386, 1-(5-(1,3-difluoro-2-methylpropan-2-yl)isoxazol-3-yl)-3-(3-(7-ethoxy-6-methoxyquinazolin-4-yloxy)phenyl)urea]"
< 250 nM,< 250 nM,< 250 nM,,< 250 nM,< 250 nM,"COc1cc2ncnc(Oc3cc(NC(=O)Nc4cc(C(C)(C)C)on4)c(F)cc3F)c2cc1OC [Ex 270, 1-(5-tert-butylisoxazol-3-yl)-3-(5-(6,7-dimethoxyquinazolin-4-yloxy)-2,4-difluorophenyl)urea]"
< 250 nM,< 250 nM,< 250 nM,,< 250 nM,< 250 nM,"CCOc1cc2c(Oc3cccc(NC(=O)Nc4cc(C(C)(C)C(F)(F)F)on4)c3)ncnc2cc1OC [Ex 260, 1-(3-(6-ethoxy-7-methoxyquinazolin-4-yloxy)phenyl)-3-(5-(1,1,1-trifluoro-2-methylpropan-2-yl)isoxazol-3-yl)urea]"
> 1000 nM,> 1000 nM,< 250 nM,,> 1000 nM,> 1000 nM,"COc1cc2ncnc(Sc3cccc(NC(=O)Nc4cc(C(C)(C)C)nn4-c4ccc(C)cc4C)c3)c2cc1OC [Ex 284, 1-(3-tert-butyl-1-(2,4-dimethylphenyl)-1H-pyrazol-5-yl)-3-(3-(6,7-dimethoxyquinazolin-4-ylthio)phenyl)urea]"
< 250 nM,< 250 nM,< 250 nM,,> 1000 nM,< 250 nM,"CCOc1cc2c(Sc3cccc(NC(=O)Nc4cc(C(C)(C)C(F)(F)F)on4)c3)ncnc2cc1OC [Ex 262, 1-(3-(6-ethoxy-7-methoxyquinazolin-4-ylthio)phenyl)-3-(5-(1,1,1-trifluoro-2-methylpropan-2-yl)isoxazol-3-yl)urea]"
< 250 nM,< 250 nM,> 1000 nM,,> 1000 nM,< 250 nM,"COCCOc1cc2ncnc(Oc3cccc(NC(=O)Nc4cc(C(F)(F)F)n(C)n4)c3)c2cc1OC [Ex 208, 1-{3-[6-methoxy-7-(2-methoxyethoxy)quinazolin-4-yloxy]phenyl}-3-[1-methyl-5-(trifluoromethyl)-1H-pyrazol-3-yl]urea]"
< 250 nM,< 250 nM,250 to 500 nM,,> 1000 nM,< 250 nM,"COc1cc2ncnc(Sc3cccc(NC(=O)Nc4cccc(C(C)(C)C#N)c4)c3)c2cc1OC [Ex 279, 1-(3-(2-cyanopropan-2-yl)phenyl)-3-(3-(6,7-dimethoxyquinazolin-4-ylthio)phenyl)urea]"
< 250 nM,< 250 nM,250 to 500 nM,,250 to 500 nM,< 250 nM,"CCOc1cc2ncnc(Oc3cccc(NC(=O)Nc4cc(C(C)(C)F)no4)c3)c2cc1OC [Ex 385, 1-(3-(7-ethoxy-6-methoxyquinazolin-4-yloxy)phenyl)-3-(3-(2-fluoropropan-2-yl)isoxazol-5-yl)urea]"
< 250 nM,< 250 nM,< 250 nM,,500 to 1000 nM,< 250 nM,"COc1cc2c(Oc3cccc(NC(=O)Nc4cc(C(C)(C)C(F)(F)F)on4)c3)ncnc2cc1O [Ex 263, 1-(3-(7-hydroxy-6-methoxyquinazolin-4-yloxy)phenyl)-3-(5-(1,1,1-trifluoro-2-methylpropan-2-yl)isoxazol-3-yl)urea]"
< 250 nM,< 250 nM,< 250 nM,,500 to 1000 nM,< 250 nM,"COc1cc2ncnc(Sc3cccc(NC(=O)Nc4cc(C(C)(C)C(F)(F)F)no4)c3)c2cc1OC [Ex 268, 1-(3-(6,7-dimethoxyquinazolin-4-ylthio)phenyl)-3-(3-(1,1,1-trifluoro-2-methylpropan-2-yl)isoxazol-5-yl)urea]"
< 250 nM,< 250 nM,> 1000 nM,,> 1000 nM,< 250 nM,"COc1cc2ncnc(Oc3cccc(NC(=O)Nc4cc(C(C)(C)F)no4)c3F)c2cc1OC [Ex 296, 1-(3-(6,7-dimethoxyquinazolin-4-yloxy)-2-fluorophenyl)-3-(3-(2-fluoropropan-2-yl)isoxazol-5-yl)urea]"
< 250 nM,< 250 nM,250 to 500 nM,,250 to 500 nM,< 250 nM,"COc1cc2ncnc(Oc3cccc(NC(=O)Nc4cc(C(C)(CF)CF)on4)c3F)c2cc1OC [Ex 297, 1-(5-(1,3-difluoro-2-methylpropan-2-yl)isoxazol-3-yl)-3-(3-(6,7-dimethoxyquinazolin-4-yloxy)-2-fluorophenyl)urea]"

Structure (SMILES),Kd (RAF kinases [1]),Kd (RAF kinases [2]),IC50 [3],Kd (RAF kinases [4]),EC50 (A375 cells),Kd (RAF kinases [5])
"COc1cc2ncnc(Sc3cccc(NC(=O)Nc4cc(C(C)(C)C)nn4-c4ccc(Cl)cc4)c3)c2cc1OC [Ex 366, 1-(3-tert-butyl-1-(4-chlorophenyl)-1H-pyrazol-5-yl)-3-(3-(6,7-dimethoxyquinazolin-4-ylthio)phenyl)urea]",> 1000 nM,> 1000 nM,< 250 nM,250 to 500 nM,,
